Test results published in US11992497B2 (priority 2021, dated 2024).

Experiments:
Assay in all cases: UGT reaction phenotyping, recombinant Supersomes
UGT1A1 = biological target: T1, UGT1A1 (Homo sapiens, UniProt P22309); conditions: recombinant enzyme, pH 7.4
T1 sequence (P22309 26-533): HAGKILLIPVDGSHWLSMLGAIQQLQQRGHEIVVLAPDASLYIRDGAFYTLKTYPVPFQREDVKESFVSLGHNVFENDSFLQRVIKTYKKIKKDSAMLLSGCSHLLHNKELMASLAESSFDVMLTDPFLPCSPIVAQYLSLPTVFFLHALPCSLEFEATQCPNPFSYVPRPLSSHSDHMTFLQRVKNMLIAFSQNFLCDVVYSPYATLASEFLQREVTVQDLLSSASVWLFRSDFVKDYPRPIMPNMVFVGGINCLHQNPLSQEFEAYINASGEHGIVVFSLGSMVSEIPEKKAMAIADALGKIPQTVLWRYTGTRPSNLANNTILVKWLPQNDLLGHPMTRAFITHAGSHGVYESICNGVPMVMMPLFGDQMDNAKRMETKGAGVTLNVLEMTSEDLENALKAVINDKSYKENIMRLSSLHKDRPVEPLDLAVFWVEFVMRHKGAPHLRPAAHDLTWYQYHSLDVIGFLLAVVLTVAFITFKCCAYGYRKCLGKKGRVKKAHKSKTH
Procedure: (§1) Experimental Summary: UGT Reaction Phenotyping (7 Isoforms).
(§2) Experimental Procedure: cDNA expressed human UGT enzyme preparations (Supersomes) supplied by BD Biosciences were obtained and stored at −80° C. prior to use. The specific isoforms were chosen by the performing laboratory based on published guidelines. They are considered the clinically relevant of the UGT isoforms (E. Kasteel et al. Human variability in isoform-specific UDP-glucuronosyltransferases: markers of acute and chronic exposure, polymorphisms and uncertainty factors. Arch Toxicol. 2020; 94(8): 2637-2661)
(§3) Supersomes in 0.1 M Tris buffer pH 7.4, alamethicin (44.6 μg/mL) and test compound (final concentration of 5 μM; final DMSO concentration ≤0.1%) were pre-incubated at 37° C. prior to the addition of UDGPA (final concentration 2 mM) to initiate the reaction. Incubations were also performed using control Supersomes (no UGT enzymes present) to reveal any non-enzymatic degradation. Compounds known to be metabolized specifically by each UGT isoform were used as control compounds (7-hydroxy-4-trifluoromethylcoumarin, all but UGT1A4, or trifluoperazine for UGT1A4).
(§4) CBG or Compound 1 were incubated in duplicate for 0, 10, 20, 40 and 60 min with each isoform. The reactions were stopped by the addition of methanol containing an analytical internal standard at the time points specified in the table above. Stopped reactions were kept on ice for at least ten minutes and the samples were centrifuged to remove precipitated protein. Supernatants were analyzed by LC-MS/MS methodology developed by the performing laboratory to quantitate the parent remaining.
(§5) The change in CBG concentration were used to calculate the Half life (t1/2 in min) and the intrinsic clearance ([…]) as shown in the following table (S. C, Khojasteh et.al., Drug Metabolism and Pharmacokinetics Quick Guide, Springer, NY, 2011), Intrinsic Clearance (CIint) is a measure of the ability of hepatocytes to eliminate drug irrespective other factors such as blood flow or protein binding. The calculations were the same as those used in Example 3A.

UGT2B7 = biological target: T2, UGT2B7 (Homo sapiens, UniProt P16662); conditions: for half-life at 1 µM / microsomal CLint at 1 µM: human, recombinant enzyme, pH 7.4
T2 sequence (P16662 24-529): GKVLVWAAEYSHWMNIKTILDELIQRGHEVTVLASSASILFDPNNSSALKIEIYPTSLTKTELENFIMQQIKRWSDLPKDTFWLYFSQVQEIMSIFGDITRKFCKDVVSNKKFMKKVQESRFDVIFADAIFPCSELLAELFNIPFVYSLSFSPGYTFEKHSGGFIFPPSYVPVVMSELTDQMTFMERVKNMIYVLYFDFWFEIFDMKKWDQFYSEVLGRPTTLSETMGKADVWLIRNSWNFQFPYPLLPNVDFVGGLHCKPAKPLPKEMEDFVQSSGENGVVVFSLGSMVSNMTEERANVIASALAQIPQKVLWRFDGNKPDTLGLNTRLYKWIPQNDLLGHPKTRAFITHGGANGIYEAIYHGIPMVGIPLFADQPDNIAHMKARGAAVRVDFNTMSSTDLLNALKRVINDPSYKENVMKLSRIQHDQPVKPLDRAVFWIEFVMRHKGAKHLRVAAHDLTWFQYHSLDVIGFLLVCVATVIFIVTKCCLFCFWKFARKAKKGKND
Procedure: as §1, §2, §3, §4, §5

UGT1A9 = biological target: T3, UGT1A9 (Homo sapiens, UniProt O60656); conditions: pH 7.4; for half-life at 1 µM / microsomal CLint at 1 µM: recombinant enzyme
T3 sequence (O60656 26-530): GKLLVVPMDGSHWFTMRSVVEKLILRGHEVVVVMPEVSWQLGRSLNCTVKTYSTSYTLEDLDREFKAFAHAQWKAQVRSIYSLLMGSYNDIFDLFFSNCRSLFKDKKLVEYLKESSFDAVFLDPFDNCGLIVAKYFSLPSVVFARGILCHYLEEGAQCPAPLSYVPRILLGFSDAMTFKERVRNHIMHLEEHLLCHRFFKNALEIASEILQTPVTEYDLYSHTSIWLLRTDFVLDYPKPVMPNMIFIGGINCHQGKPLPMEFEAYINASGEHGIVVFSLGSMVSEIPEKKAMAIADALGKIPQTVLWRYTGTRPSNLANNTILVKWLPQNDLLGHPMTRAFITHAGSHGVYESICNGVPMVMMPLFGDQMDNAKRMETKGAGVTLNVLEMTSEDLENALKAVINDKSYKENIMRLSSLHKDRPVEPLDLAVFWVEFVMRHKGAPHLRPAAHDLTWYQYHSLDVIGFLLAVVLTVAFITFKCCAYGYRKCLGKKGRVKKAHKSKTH
Procedure: as §1, §2, §3, §4, §5

SMILES: CCCCCc1cc(O)c(C/C=C(\C)CCC=C(C)C)c(OC)c1 [Compound 1, (E)-2-(3,7-dimethylocta-2,6-dien-1-yl)-3-methoxy-5-pentylphenol]
- half-life at 1 µM (UGT1A1): 103 min
- microsomal CLint at 1 µM (UGT1A1): 13.5 µL/min/mg
- half-life at 1 µM (UGT2B7): 24.8 min
- microsomal CLint at 1 µM (UGT2B7): 55.9 µL/min/mg
- half-life at 1 µM (UGT1A9): 14 min
- microsomal CLint at 1 µM (UGT1A9): 99.1 µL/min/mg

SMILES: O=c1cc(C(F)(F)F)c2ccc(O)cc2o1 [7-OH4trifluoromethylcoumarin, 7-hydroxy-4-trifluoromethylcoumarin]
- half-life at 1 µM (UGT1A1): 33.1 min
- microsomal CLint at 1 µM (UGT1A1): 41.8 µL/min/mg
- half-life at 1 µM (UGT2B7): 50.4 min
- microsomal CLint at 1 µM (UGT2B7): 27.5 µL/min/mg
- half-life at 1 µM (UGT1A9): 3.04 min
- microsomal CLint at 1 µM (UGT1A9): 456 µL/min/mg

SMILES: CCCCCc1cc(O)c(C/C=C(\C)CCC=C(C)C)c(O)c1 [CBG, cannabigerol]
- half-life at 1 µM (UGT1A1): 77.1 min
- microsomal CLint at 1 µM (UGT1A1): 18 µL/min/mg
- activity of UGT2B7 relative to UGT1A9 (UGT2B7; CBG as substrate): approximately 1/10
- half-life at 1 µM (UGT2B7): 17.9 min
- microsomal CLint at 1 µM (UGT2B7): 77.5 µL/min/mg
- share of UGT1A9 in the activity with CBG for all the UGTs combined (UGT1A9; 5 µM): ~80%
- half-life at 1 µM (UGT1A9): 1.92 min
- microsomal CLint at 1 µM (UGT1A9): 721 µL/min/mg
